The test system of one experiment is leukemia P-388. Nature of the experiment: Antitumor activity, life span prolongation of mice transplanted intraperitoneally with leukemia P-388 tumor cells. The format is in vivo. Conditions: i.p. once daily for 9 consecutive days. As to the method: (§1) Therapeutic tests were carried out in mice according to NCI-protocols 1,200 and 1,300, Cancer Chemother, Reports, Part 3, 1972, Vol. 3, No. 2, in which leukemia P-388 and melanoma B-16 tumor cells had been intraperitoneally transplanted, compound (I) being administered intraperitoneally once daily for 9 consecutive days.

The next experiment concerns melanoma B-16. The experiment is described as follows: Antitumor activity, life span prolongation of mice transplanted intraperitoneally with melanoma B-16 tumor cells. The class given is in vivo. Conditions: i.p. once daily for 9 consecutive days. On the procedure:
as §1

Another experiment has as its system Tetrahymena pyriformis W. The experiment is described as follows: Antiprotozoal activity, growth inhibition by the serial dilution method. The class given is cell-based. On the procedure:
Antiprotozoal activity of compound (I) was assayed with Tetrahymena pyriformis W as the test organism and a medium composed of 20 g tryptose-peptone (Difco Co.), 1 g yeast extract, 2 g glucose, 1000 ml distilled water, 10 ml 1 M phosphate buffer (pH 7.0) as the assay medium. The microorganism was incubated at 28° C. for 44 to 48 hours and the growth inhibitory activity of compound (I) was assayed by the serial dilution method.

Setting [1] is: Tetrahymena pyriformis, pH 7, read-out: Antiprotozoal activity MIC (minimal inhibitory concentration).

Values after ≈ are worked out from the molar mass of the structure shown. Read-outs that look alike come from different tables or passages of the source.

On to `COc1cc2cc(c1)N(C)C(=O)CC(OC(=O)[C@H](C)N(C)C(C)=O)C1(C)OC1C(C)C1CC(O)(NC(=O)O1)C(OC)C=CC=C(C)C2` (stereo partly shown) [Dechloromaytansine, dechloromaytansine], for which the “Antitumor activities P-388 (T/C %)” value is recorded as 158 T/C % with leukemia P-388 (50 μg/kg), 165 T/C % in the experiment on leukemia P-388 (100 μg/kg), 175 T/C % in the experiment on leukemia P-388 (200 μg/kg) and 189 T/C % with leukemia P-388 (400 μg/kg). Besides, the “Antitumor activities B-16 (T/C %)” value in the experiment on melanoma B-16 (100 μg/kg) is given as 171 T/C %; in the experiment on melanoma B-16 (200 μg/kg), 152 T/C %; with melanoma B-16 (400 μg/kg), 179 T/C %; with melanoma B-16 (800 μg/kg) it was 190 T/C %.

Take `COc1cc2cc(c1)N(C)C(=O)CC(OC(=O)CCl)C1(C)OC1C(C)C1CC(O)(NC(=O)O1)C(OC)C=CC=C(C)C2` (stereo not shown) [Dechloromaytansinol 3-chloroacetate, dechloromaytansinol 3-chloroacetate]: in the experiment on Tetrahymena pyriformis W (setting [1]), the MIC is no less than 4 µg/mL.

With `COc1cc2cc(c1)N(C)C(=O)CC(OC(=O)C(C)C)C1(C)OC1C(C)C1CC(O)(NC(=O)O1)C(OC)C=CC=C(C)C2` (stereo not shown) [Dechloromaytansinol 3-isobutyrate, dechloromaytansinol 3-isobutyrate], the “Antitumor activities P-388 (T/C %)” value was found to be 168 T/C % with leukemia P-388 (50 μg/kg), 189 T/C % in the experiment on leukemia P-388 (100 μg/kg), 193 T/C % in the experiment on leukemia P-388 (200 μg/kg) and 224 T/C % in the experiment with leukemia P-388 (400 μg/kg). The “Antitumor activities B-16 (T/C %)” value with melanoma B-16 (100 μg/kg) came to 150 T/C %; in the experiment on melanoma B-16 (200 μg/kg) it was 152 T/C %; in the experiment on melanoma B-16 (400 μg/kg), 174 T/C %; in the experiment with melanoma B-16 (800 μg/kg), 214 T/C %.

For the compound `COc1cc2cc(c1)N(C)C(=O)CC(OC(=O)Cc1ccccc1)C1(C)OC1C(C)C1CC(O)(NC(=O)O1)C(OC)C=CC=C(C)C2` (stereo not shown) [Dechloromaytansinol 3-phenylacetate, dechloromaytansinol 3-phenylacetate], in the experiment on Tetrahymena pyriformis W (Tetrahymena pyriformis W, 28° C., 44 to 48 hours, serial dilution method, pH 7.0, read-out: Antiprotozoal activity MIC (minimal inhibitory concentration)), the MIC came out at 2 µg/mL (≈ 3.08 µM).

For `COc1cc2cc(c1)N(C)C(=O)CC(OC(=O)C1CCCCC1)C1(C)OC1C(C)C1CC(O)(NC(=O)O1)C(OC)C=CC=C(C)C2` (stereo not shown) [dechloromaytansinol 3-cyclohexanecarboxylate], the MIC with Tetrahymena pyriformis W (setting [1]) stood at 4 µg/mL (≈ 6.24 µM).

Source of the values: patent US4256746A, “Dechloromaytansinoids, their pharmaceutical compositions and method of use” (priority 1978, dated 1981).
